Experimental data published in ChEMBL document CHEMBL1201862, “PubChem BioAssay data set” (2004).
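Growth conditions: 96-well plates. Treatment: test compound, 48 hours, 5 concentrations. Analysis: linear interpolation between bracketing concentrations; unreached endpoints set to highest concentration. GI50 is the concentration that inhibits growth by half.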 The source made the active and inactive calls. No stated cut-off is given here; in the data, active = GI50 up to about 1.1 µM and inactive = higher.

What was measured:
Test in all cases: DTP human tumour cell line panel, 48 h
NCI-H23 = system: NCI-H23
SNB-78 = system: SNB-78
IGROV-1 = system: IGROV-1
XF498 = system: XF498
HT-29 = system: HT-29
SF-539 = system: SF-539
NCI-H226 = system: NCI-H226
K562 = system: K562
SK-OV-3 = system: SK-OV-3
SK-MEL-5 = system: SK-MEL-5
SN12C = system: SN12C
NCI/ADR-RES = system: NCI/ADR-RES
CCRF-CEM = system: CCRF-CEM
U-251 = system: U-251
DLD-1 = system: DLD-1

Measured: GI50

COc1c2ccoc2c(S(=O)(=O)Nc2ccc(Cl)cc2)c2oc(C)cc(=O)c12
inactive: NCI-H23 > 100 µM | SNB-78 > 100 µM | IGROV-1 > 100 µM | XF498 > 85.1 µM | HT-29 > 100 µM | SF-539 31.3 µM | NCI-H226 > 81.1 µM | K562 > 100 µM | SK-OV-3 > 100 µM | SK-MEL-5 > 79.8 µM | SN12C > 83.4 µM | NCI/ADR-RES > 100 µM | CCRF-CEM > 100 µM | U-251 > 100 µM | DLD-1 > 100 µM

O=C(O)CCCCCCC[C@@H]1S[C@H]1CCCCCCO
inactive: NCI-H23 > 100 µM | SNB-78 > 100 µM | IGROV-1 > 64.7 µM | XF498 > 100 µM | HT-29 > 100 µM | SF-539 > 100 µM | NCI-H226 > 100 µM | K562 > 100 µM | SK-OV-3 > 100 µM | SK-MEL-5 > 100 µM | SN12C > 100 µM | NCI/ADR-RES > 100 µM | CCRF-CEM > 100 µM | U-251 > 100 µM | DLD-1 > 100 µM

CC(C)CC/N=c1/cc2n(-c3ccc(Cl)cc3)c3ccccc3nc-2cc1Nc1ccc(Cl)cc1
inactive: NCI-H23 3.43 µM | SNB-78 15.5 µM | IGROV-1 3.13 µM | XF498 6.64 µM | HT-29 2.52 µM | SF-539 16 µM | NCI-H226 6.25 µM | K562 2.96 µM | SK-OV-3 18.1 µM | SK-MEL-5 12.7 µM | SN12C 9.27 µM | NCI/ADR-RES 10.1 µM | CCRF-CEM 3.72 µM | U-251 8.67 µM | DLD-1 1.97 µM

Nc1nc(N)nc(-c2ccccc2NS(=O)(=O)c2ccc([N+](=O)[O-])cc2)n1
inactive: NCI-H23 37.2 µM | SNB-78 > 74.1 µM | IGROV-1 > 100 µM | XF498 18.2 µM | HT-29 53.7 µM | SF-539 > 100 µM | NCI-H226 61.2 µM | K562 > 10 µM | SK-OV-3 > 100 µM | SK-MEL-5 29 µM | SN12C 97.3 µM | NCI/ADR-RES 17.3 µM | CCRF-CEM 27.5 µM | U-251 > 84.9 µM | DLD-1 59.6 µM
